Experimental data: US12077503B2, “Substituted cyclic amides and their use as herbicides” (FMC CORPORATION, priority 2015, dated 2024)

Tests used:
Format in all cases: in vivo
[1] = test system: redroot pigweed (Amaranthus retroflexus); assay: Test G Pre-Emergence Protocol; details: Amaranthus retroflexus, pre-emergence, 312 h, evaluated after 13 days; for pest or weed control at 15.625 g/ha: 15.625 g ai/ha; for pest or weed control at 15.625 g/ha / pest or weed control at 250 g/ha: read-out: Pigweed, Redroot damage rating (100=total damage to plant; 0=no damage to plant); for pest or weed control at 62.5 g/ha: 62.5 g ai/ha, 100=total damage to plant, 0=no damage to plant, read-out: Pigweed, Redroot damage rating; for pest or weed control at 250 g/ha: 250 g ai/ha
In short: (§1)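 Pots of seeds in standard soil were grown for one day in a glasshouse (24/16 °C day/night, 14 h light, 65% humidity), then sprayed with compound in acetone/water 50:50 with 0.5% Tween 20 at 15.625, 62.5 or 250 g/ha. Damage was scored after 13 days on a 0 (none) to 100 (total) scale.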

[2] = test system: velvetleaf (Abutilon theophrasti); assay: Test G Pre-Emergence Protocol; details: Abutilon theophrasti, pre-emergence, 312 h, evaluated after 13 days; for pest or weed control at 15.625 g/ha: 15.625 g ai/ha; for pest or weed control at 15.625 g/ha / pest or weed control at 250 g/ha: read-out: Velvetleaf damage rating (100=total damage to plant; 0=no damage to plant); for pest or weed control at 62.5 g/ha: 62.5 g ai/ha, 100=total damage to plant, 0=no damage to plant, read-out: Velvetleaf damage rating; for pest or weed control at 250 g/ha: 250 g ai/ha
In short: as §1

[3] = test system: giant foxtail (Setaria faberi); assay: Test G Pre-Emergence Protocol; details: Setaria faberi, pre-emergence, 312 h, evaluated after 13 days; for pest or weed control at 15.625 g/ha: 15.625 g ai/ha; for pest or weed control at 15.625 g/ha / pest or weed control at 250 g/ha: read-out: Foxtail, Giant damage rating (100=total damage to plant; 0=no damage to plant); for pest or weed control at 62.5 g/ha: 62.5 g ai/ha, 100=total damage to plant, 0=no damage to plant, read-out: Foxtail, Giant damage rating; for pest or weed control at 250 g/ha: 250 g ai/ha
In short: as §1

corn (Zea mays) [4] = assay: Test G Pre-Emergence Protocol; details: Zea mays, pre-emergence, 312 h, evaluated after 13 days; for plant injury at 15.625 g/ha: 15.625 g ai/ha; for plant injury at 15.625 g/ha / plant injury at 250 g/ha: read-out: Corn damage rating (100=total damage to plant; 0=no damage to plant); for plant injury at 62.5 g/ha: 62.5 g ai/ha, 100=total damage to plant, 0=no damage to plant, read-out: Corn damage rating; for plant injury at 250 g/ha: 250 g ai/ha
In short: as §1

[5] = test system: barnyardgrass (Echinochloa crus-galli); assay: Test G Pre-Emergence Protocol; details: Echinochloa crus-galli, pre-emergence, 312 h, evaluated after 13 days; for pest or weed control at 15.625 g/ha: 15.625 g ai/ha; for pest or weed control at 15.625 g/ha / pest or weed control at 250 g/ha: read-out: Barnyardgrass damage rating (100=total damage to plant; 0=no damage to plant); for pest or weed control at 62.5 g/ha: 62.5 g ai/ha, 100=total damage to plant, 0=no damage to plant, read-out: Barnyardgrass damage rating; for pest or weed control at 250 g/ha: 250 g ai/ha
In short: as §1

[6] = test system: ivy-leaved morning glory (Ipomoea hederacea); assay: Test G Pre-Emergence Protocol; details: Ipomoea, pre-emergence, 312 h, evaluated after 13 days; for pest or weed control at 15.625 g/ha: 15.625 g ai/ha; for pest or weed control at 15.625 g/ha / pest or weed control at 250 g/ha: read-out: Morningglory, Ivy-leaved damage rating (100=total damage to plant; 0=no damage to plant); for pest or weed control at 62.5 g/ha: 62.5 g ai/ha, 100=total damage to plant, 0=no damage to plant, read-out: Morningglory, Ivy-leaved damage rating; for pest or weed control at 250 g/ha: 250 g ai/ha
In short: as §1

[7] = test system: redroot pigweed (Amaranthus retroflexus); assay: Test G Post-Emergence Protocol; details: Amaranthus retroflexus, post-emergence, 312 h, read-out: Pigweed, Redroot damage rating; for pest or weed control at 15.625 g/ha: 15.625 g ai/ha, evaluated after 13 days (100=total damage to plant; 0=no damage to plant); for pest or weed control at 62.5 g/ha: 62.5 g ai/ha; for pest or weed control at 62.5 g/ha / pest or weed control at 250 g/ha: evaluated after 13 days, 100=total damage to plant, 0=no damage to plant; for pest or weed control at 250 g/ha: 250 g ai/ha
In short: (§2)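 Sow in soil; grow 8 d (24/16 °C, 14 h light, 65% humidity); spray 15.625/62.5/250 g/ha in acetone:water 50:50 + 0.5% Tween 20; grow on, water twice daily; score damage 0–100 at 13 d.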

[8] = test system: velvetleaf (Abutilon theophrasti); assay: Test G Post-Emergence Protocol; details: Abutilon theophrasti, post-emergence, 312 h, read-out: Velvetleaf damage rating; for pest or weed control at 15.625 g/ha: 15.625 g ai/ha, evaluated after 13 days (100=total damage to plant; 0=no damage to plant); for pest or weed control at 62.5 g/ha: 62.5 g ai/ha; for pest or weed control at 62.5 g/ha / pest or weed control at 250 g/ha: evaluated after 13 days, 100=total damage to plant, 0=no damage to plant; for pest or weed control at 250 g/ha: 250 g ai/ha
In short: as §2

[9] = test system: giant foxtail (Setaria faberi); assay: Test G Post-Emergence Protocol; details: Setaria faberi, post-emergence, 312 h, read-out: Foxtail, Giant damage rating; for pest or weed control at 15.625 g/ha: 15.625 g ai/ha, evaluated after 13 days (100=total damage to plant; 0=no damage to plant); for pest or weed control at 62.5 g/ha: 62.5 g ai/ha; for pest or weed control at 62.5 g/ha / pest or weed control at 250 g/ha: evaluated after 13 days, 100=total damage to plant, 0=no damage to plant; for pest or weed control at 250 g/ha: 250 g ai/ha
In short: as §2

corn (Zea mays) [10] = assay: Test G Post-Emergence Protocol; details: Zea mays, post-emergence, 312 h, read-out: Corn damage rating; for plant injury at 15.625 g/ha: 15.625 g ai/ha, evaluated after 13 days (100=total damage to plant; 0=no damage to plant); for plant injury at 62.5 g/ha: 62.5 g ai/ha; for plant injury at 62.5 g/ha / plant injury at 250 g/ha: evaluated after 13 days, 100=total damage to plant, 0=no damage to plant; for plant injury at 250 g/ha: 250 g ai/ha
In short: as §2

[11] = test system: barnyardgrass (Echinochloa crus-galli); assay: Test G Post-Emergence Protocol; details: Echinochloa crus-galli, post-emergence, 312 h, read-out: Barnyardgrass damage rating; for pest or weed control at 15.625 g/ha: 15.625 g ai/ha, evaluated after 13 days (100=total damage to plant; 0=no damage to plant); for pest or weed control at 62.5 g/ha: 62.5 g ai/ha; for pest or weed control at 62.5 g/ha / pest or weed control at 250 g/ha: evaluated after 13 days, 100=total damage to plant, 0=no damage to plant; for pest or weed control at 250 g/ha: 250 g ai/ha
In short: as §2

[12] = test system: ivy-leaved morning glory (Ipomoea hederacea); assay: Test G Post-Emergence Protocol; details: Ipomoea, post-emergence, 312 h, read-out: Morningglory, Ivy-leaved damage rating; for pest or weed control at 15.625 g/ha: 15.625 g ai/ha, evaluated after 13 days (100=total damage to plant; 0=no damage to plant); for pest or weed control at 62.5 g/ha: 62.5 g ai/ha; for pest or weed control at 62.5 g/ha / pest or weed control at 250 g/ha: evaluated after 13 days, 100=total damage to plant, 0=no damage to plant; for pest or weed control at 250 g/ha: 250 g ai/ha
In short: as §2

CN1CCC(NC(=O)[C@H]2C(=O)N(C)C[C@@H]2c2ccc(C(F)(F)F)cc2)C1=O (mixture of isomers) [Compound 1673]
0%: pest or weed control at 15.625 g/ha [1] | pest or weed control at 62.5 g/ha [1] | pest or weed control at 250 g/ha [1] | pest or weed control at 15.625 g/ha [2] | pest or weed control at 62.5 g/ha [2] | pest or weed control at 250 g/ha [2] | pest or weed control at 15.625 g/ha [3] | pest or weed control at 62.5 g/ha [3] | pest or weed control at 250 g/ha [3] | plant injury at 15.625 g/ha (corn (Zea mays) [4]) | plant injury at 62.5 g/ha (corn (Zea mays) [4]) | plant injury at 250 g/ha (corn (Zea mays) [4]) | pest or weed control at 15.625 g/ha [5] | pest or weed control at 62.5 g/ha [5] | pest or weed control at 250 g/ha [5] | pest or weed control at 15.625 g/ha [6] | pest or weed control at 62.5 g/ha [6] | pest or weed control at 250 g/ha [6] | pest or weed control at 15.625 g/ha [7] | pest or weed control at 62.5 g/ha [7] | pest or weed control at 250 g/ha [7] | pest or weed control at 15.625 g/ha [8] | pest or weed control at 62.5 g/ha [8] | pest or weed control at 250 g/ha [8] | pest or weed control at 15.625 g/ha [9] | pest or weed control at 62.5 g/ha [9] | plant injury at 15.625 g/ha (corn (Zea mays) [10]) | plant injury at 62.5 g/ha (corn (Zea mays) [10]) | plant injury at 250 g/ha (corn (Zea mays) [10]) | pest or weed control at 15.625 g/ha [11] | pest or weed control at 62.5 g/ha [11] | pest or weed control at 250 g/ha [11] | pest or weed control at 15.625 g/ha [12] | pest or weed control at 62.5 g/ha [12] | pest or weed control at 250 g/ha [12]
10%: pest or weed control at 250 g/ha [9]

CN1C[C@H](c2ccc(C(F)(F)F)cc2)[C@@H](C(=O)Nc2cnccc2[S+](C)[O-])C1=O (mixture of isomers) [Compound 1751]
10%: pest or weed control at 250 g/ha [1] | pest or weed control at 250 g/ha [3] | pest or weed control at 250 g/ha [7] | pest or weed control at 250 g/ha [8] | pest or weed control at 250 g/ha [9]
0%: pest or weed control at 15.625 g/ha [1] | pest or weed control at 62.5 g/ha [1] | pest or weed control at 15.625 g/ha [2] | pest or weed control at 62.5 g/ha [2] | pest or weed control at 250 g/ha [2] | pest or weed control at 15.625 g/ha [3] | pest or weed control at 62.5 g/ha [3] | plant injury at 15.625 g/ha (corn (Zea mays) [4]) | plant injury at 62.5 g/ha (corn (Zea mays) [4]) | plant injury at 250 g/ha (corn (Zea mays) [4]) | pest or weed control at 15.625 g/ha [5] | pest or weed control at 62.5 g/ha [5] | pest or weed control at 250 g/ha [5] | pest or weed control at 15.625 g/ha [6] | pest or weed control at 62.5 g/ha [6] | pest or weed control at 250 g/ha [6] | pest or weed control at 15.625 g/ha [7] | pest or weed control at 62.5 g/ha [7] | pest or weed control at 15.625 g/ha [8] | pest or weed control at 62.5 g/ha [8] | pest or weed control at 15.625 g/ha [9] | pest or weed control at 62.5 g/ha [9] | plant injury at 15.625 g/ha (corn (Zea mays) [10]) | plant injury at 62.5 g/ha (corn (Zea mays) [10]) | plant injury at 250 g/ha (corn (Zea mays) [10]) | pest or weed control at 15.625 g/ha [11] | pest or weed control at 62.5 g/ha [11] | pest or weed control at 250 g/ha [11] | pest or weed control at 15.625 g/ha [12] | pest or weed control at 62.5 g/ha [12] | pest or weed control at 250 g/ha [12]
